Like-named read-outs stand apart in the source and are kept apart here.
What was measured:
P‐gp = system: P‐gp; design: method as in unpublished data; conditions: ref unpublished data, read-out: half maximal inhibitory concentration; cited from earlier work
CYP1A2 = system: CYP1A2; design: method as in unpublished data; conditions: ref unpublished data; cited from earlier work
[1] = Phase 1 part B: PK of single 40 mg oral dose, fasted vs fed (food effect); type: in vivo, human; conditions: for AUC(0-inf) / AUC(0-t) / Cmax / half-life / Tmax: human, plasma
Description: Participants were admitted to the clinical unit the day before doses were administered on days 1 and 8 and discharged on days 2 and 9, after collection of the 36‐hour postdose PK sample. The washout period between doses was 7 days. […] After dosing, participants were required to remain upright for at least 2 hours and refrain from food and drink for at least 4 hours; water was allowed after 2 hours.
For part B, blood sampling for PK assessments was performed following single‐dose administration on days 1 and 8 at 0 (predose), 0.25, 0.5, 1, 1.5, 2, 3, 3.5, 4, 6, 8, 10, 12, 24, 36, and 72 hours after dosing. PK parameters included Cmax, tmax, AUClast, AUC∞, CL/F, apparent volume of distribution after drug administration, and t1/2.
The assay range was 0.250 to 150 ng/mL, with overall precision and accuracy for intra‐ and interassays of 2.2% to 5.9% and −2.7% to 0.3%, respectively.
PK parameters were generated using noncompartmental analysis and were based on the PK population, which included all participants who received at least 1 dose of assigned treatment (safety population) and had evaluable Cmax and AUC parameters without significant protocol deviations. For part B, the PK population included participants who completed both treatment periods and had sufficient concentration data from both periods to fully derive the PK parameters.
Estimates and 90% CIs for the differences between treatment means were computed and converted to ratios by antilog transformation. Results for the geometric mean ratio of treatments (fasted vs fed) were tabulated for Cmax, AUClast, and AUC∞.

CYP2C8 = system: CYP2C8; design: method as in unpublished data; conditions: ref unpublished data; cited from earlier work
[2] = design: method as in unpublished data; conditions: ref unpublished data; cited from earlier work
[3] = design: method as in PMID 29484635; conditions: single 35‐mg dose following a high‐fat breakfast; cited from earlier work
Caco‐2 monolayers = system: Caco‐2 monolayers; design: method as in unpublished data; conditions: ref unpublished data; cited from earlier work
[4] = oral, 40 mg, Japanese n=9, fasted, least squares mean
[5] = oral, 40 mg, Japanese n=9, fed, least squares mean
[6] = oral, 40 mg, White n=10, fasted, least squares mean
[7] = oral, 40 mg, White n=10, fed, least squares mean
[8] = po, 40 mg, 40 mg single oral dose, Japanese, fasted, mean (CV%)
[9] = po, 40 mg, 40 mg single oral dose, Japanese, fed, mean (CV%)
[10] = po, 40 mg, 40 mg single oral dose, White, fasted, mean (CV%)
[11] = po, 40 mg, 40 mg single oral dose, White, fed, mean (CV%)
[12] = po, 40 mg, 40 mg single oral, fasted, Japanese
[13] = po, 40 mg, 40 mg single oral, fasted, White

Cn1c(=O)oc2ccc(-c3ccc(C[C@@H](C#N)NC(=O)[C@@H]4CNCCCO4)cc3)cc21 [Brensocatib]
IC50 (P‐gp): > 11 µM
CYP inhibition (CYP1A2): no effect
effect of food on exposure ([1]; 40 mg): no effect
CL/F ([1]; 40 mg single oral, fasted, Japanese): 7.7 L/h
CL/F ([1]; 40 mg single oral, fasted, White): 6.5 L/h
AUClast GMR (fed/fasted), % (90% CI) ([1]; 40 mg, Japanese n=9): 98.4 (94.4‐102.5) %
AUC∞ GMR (fed/fasted), % (90% CI) ([1]; 40 mg, Japanese n=9): 99.2 (95.7‐102.8) %
Cmax GMR (fed/fasted), % (90% CI) ([1]; 40 mg, Japanese n=9): 82.4 (67.9‐99.9) %
Cmax lower in the fed state ([1]; 40 mg, Japanese participants): 17.6%
AUClast GMR (fed/fasted), % (90% CI) ([1]; 40 mg, White n=10): 101.3 (96.8‐106.0) %
AUC∞ GMR (fed/fasted), % (90% CI) ([1]; 40 mg, White n=10): 99.6 (94.6‐104.9) %
Cmax GMR (fed/fasted), % (90% CI) ([1]; 40 mg, White n=10): 101.2 (81.4‐125.9) %
AUC(0-inf) [1, 4]: 5270 ng·h/mL
AUC(0-t) [1, 4]: 4920 ng·h/mL
Cmax [1, 4]: 356 ng/mL
AUC(0-inf) [1, 5]: 5230 ng·h/mL
AUC(0-t) [1, 5]: 4840 ng·h/mL
Cmax [1, 5]: 293 ng/mL
AUC(0-inf) [1, 6]: 6200 ng·h/mL
AUC(0-t) [1, 6]: 5150 ng·h/mL
Cmax [1, 6]: 269 ng/mL
AUC(0-inf) [1, 7]: 6180 ng·h/mL
AUC(0-t) [1, 7]: 5210 ng·h/mL
Cmax [1, 7]: 272 ng/mL
half-life ([1]; oral, 40 mg, fasted and fed, White, read-out: Mean t1/2 (converted)): 27 to 28 h
Tmax ([1]; oral, 40 mg, fasted, Japanese, read-out: median Tmax): 1.3 h
Tmax ([1]; oral, 40 mg, fasted, White, read-out: median Tmax): 1.3 h
half-life ([1]; oral, 40 mg, fed, Japanese, read-out: Mean t1/2 (converted)): 18.4 h
Tmax ([1]; oral, 40 mg, fed, Japanese, read-out: median Tmax): 3 h
Tmax ([1]; oral, 40 mg, fed, White, read-out: median Tmax): 2 h
AUC(0-inf) [1, 8]: 5470 ng·h/mL
AUC(0-t) [1, 8]: 5010 ng·h/mL
Cmax [1, 8]: 352 ng/mL
half-life ([1]; po, 40 mg, 40 mg single oral dose, Japanese, fasted, mean (CV%), read-out: t1/2 (converted)): 19.3 h
Tmax ([1]; po, 40 mg, 40 mg single oral dose, Japanese, fasted, median (range), read-out: Tmax): 1.27 h
AUC(0-inf) [1, 9]: 5490 ng·h/mL
AUC(0-t) [1, 9]: 4980 ng·h/mL
Cmax [1, 9]: 297 ng/mL
half-life ([1]; po, 40 mg, 40 mg single oral dose, Japanese, fed, mean (CV%), read-out: t1/2 (converted)): 19.4 h
Tmax ([1]; po, 40 mg, 40 mg single oral dose, Japanese, fed, median (range), read-out: Tmax): 3 h
AUC(0-inf) [1, 10]: 6680 ng·h/mL
AUC(0-t) [1, 10]: 5480 ng·h/mL
Cmax [1, 10]: 301 ng/mL
half-life ([1]; po, 40 mg, 40 mg single oral dose, White, fasted, mean (CV%), read-out: t1/2 (converted)): 28.9 h
Tmax ([1]; po, 40 mg, 40 mg single oral dose, White, fasted, median (range), read-out: Tmax): 1.25 h
AUC(0-inf) [1, 11]: 6500 ng·h/mL
AUC(0-t) [1, 11]: 5470 ng·h/mL
Cmax [1, 11]: 302 ng/mL
half-life ([1]; po, 40 mg, 40 mg single oral dose, White, fed, mean (CV%), read-out: t1/2 (converted)): 27.5 h
Tmax ([1]; po, 40 mg, 40 mg single oral dose, White, fed, median (range), read-out: Tmax): 2 h
AUC(0-inf) [1, 12]: 5180 ng·h/mL
AUC(0-t) [1, 12]: 4820 ng·h/mL
Cmax [1, 12]: 338 ng/mL
half-life ([1]; po, 40 mg, 40 mg single oral, fasted, Japanese, read-out: Elimination t1/2 (converted)): 18.7 h
AUC(0-inf) [1, 13]: 6200 ng·h/mL
AUC(0-t) [1, 13]: 5150 ng·h/mL
Cmax [1, 13]: 269 ng/mL
half-life ([1]; po, 40 mg, 40 mg single oral, fasted, White, read-out: Elimination t1/2 (converted)): 28 h
Tmax ([1]; po, 40 mg, 40 mg single oral, fasted, both Japanese and White participants, read-out: Tmax): 1.3 h
CYP inhibition (CYP2C8): no effect
degradation in human intestinal microsomes and hepatocytes [2]: minimal degradation
Tmax [3]: 3.3 h
decrease of AUC with food [3]: 9%
decrease of Cmax with food [3]: 36%
apparent permeability from apical side to basolateral side (Caco‐2 monolayers): 9.03 × 10^–6 cm/s

— publication PMC9322451 (Clinical Pharmacology in Drug Development, 2022)
